In patent publication US7595003B2, “On-board water treatment and management process and apparatus” (priority 2004, dated 2009):
Several values for one entry are separate records, joined by “and”; a condition that tells them apart may be missing. Identical values can stand only once.

Key:
[1] = tested on: B. subtilis var. niger endospores ATCC 9372; experiment: batch challenge of B. subtilis endospores in deionized buffered water, plate count; format: cell-based, Bacillus subtilis
[2] = ozone mass transport into water in acoustic reactor; format: physicochemical; settings: high acoustic intensity (215 dB) versus low acoustic intensity (205 dB, nominally same as sparger)
Procedure: Adopting the same approach as above, acoustic energy at 205 and 215 dB re 1 μPa at 75 Hz was supplied along with the ozone over the same range of concentration. The acoustic pressure signal of the sonic devices was detected with a hydrophone sensor placed in the reactor. A typical 214 dB signal is shown in the captured trace in FIG. 11. In this series of experiments with a constant 1.5 mg/L concentration, the applied power of the ozone generator was constant; i.e., it was not controlled by the feedback of the dissolved ozone concentration controller. Higher intensity of applied acoustic energy appears to correlate to an increase in ozone mass transport. Utilizing the slopes of the ozone concentration curves, one can calculate an apparent mass transfer coefficient about 40% greater for the high acoustic intensity than for the low acoustic intensity, which was nominally the same as the sparger. This effect has been noted in other applications of ozone mixing, specifically in the oxidative treatment of waste streams. Intensity of this magnitude corresponds to pressure fluctuations of over 8 psi.

[3] = tested on: organisms contained in the ballast water; experiment: batch challenge of unfortified actual ballast water; format: cell-based
Procedure: The basic approach was evaluated with batch challenging of actual ballast water. The water came from the hold of a ship originating from Port Moin, Costa Rica. Ballast water in the ship was sampled in the Port of Philadelphia, and the biota in the samples was characterized by the Bigelow Laboratory for Ocean Sciences. About 80% of the water was taken on or exchanged in the Caribbean, while it is believed that the remaining 20% came from the port of origin. The water had been in the ballast tanks for 21 days, and total ballast capacity of the vessel was 265 cubic meters. The samples were drawn at the 73 cubic meter level.
A challenge was made of unfortified ballast water (without B. subtilis endospores) to assess the killing of organisms contained in the ballast water. For this test, an applied ozone power of 660 watts was used with 0.8 m^3hr^−1. The samples were quenched by adding 10 ml of 1% sodium thiosulfate to the 1 L HDPE collection bottles prior to collecting the samples. A control sample without ozone treatment or quenchant was submitted along with a control containing the quenchant without treatment.
The treatment times for the samples were in one-minute increments from one to five minutes.

[4] = tested on: bacteria and fungi; experiment: flowing system (Phase II): culture tests for the presence of bacteria and fungi; format: cell-based; parameters: key to growth in TM (test medium) / growth in M (malt broth) / growth in PM (peptonemethylamine broth) / growth in P (peptone broth) / growth in BP: Bacterial growth (Bac); Phytoplankton (PHY)
Procedure: Bigelow Laboratory inoculated 200 μL of sample into various media the day after the samples were collected. The flow rate, water pressure (PSI), temperature, ultrasonic treatment system (UTS) and ozone treatment values were provided by ETI. The hydrogen ion concentration (pH) and salinity values were determined at Bigelow Laboratory. Culture treatments included tests for the presence of bacteria and fungi [peptonemethylamine broth (PM), peptone broth (P), test medium (TM), malt broth (M)] and tests for the presence of phytoplankton [DY-V medium, freshwater (DYV), K medium, oceanic (K), L1+NH4, coastal (L1+NH4), black sea medium, brackish at 16 psu (Blk Sea), L1/24 medium, coastal at 24 psu (L1/24), Prov medium, coastal enriched with soil extract (Prov)]. Bacterial growth (Bac) developed in all of the bacterial test media. Phytoplankton (PHY) grew in all algal growth media (see footnotes for details).
(§1) A summary of data is provided in Table 6, below, from a second batch of harbor water samples that were likewise examined by Bigelow Laboratory the day after they were collected. 200 μL of sample was inoculated into various media. The flow rate, water pressure (PS), temperature, ultrasonic treatment system (UTS) and ozone treatment values were provided by ETI. The hydrogen ion concentration (pH) and salinity values were determined at Bigelow Laboratory. Culture treatments included tests for the presence of bacteria and fungi [peptonemethylamine broth (PM), peptone broth (P), test medium (TM), malt broth (M)] and tests for the presence of phytoplankton [DY-V medium, freshwater (DYV), K medium, oceanic (K), L1+NH4, coastal (L1+NH4), black sea medium, brackish at 16 psu (Blk Sea), L1/24 medium, coastal at 24 psu (L1/24), Prov medium, coastal enriched with soil extract (Prov)]. Bacterial growth (Bac) developed in all of the bacterial test media. Zooflagellates (Zoo) grew in all algal growth media from inlet and strainer samples but none from the outlet samples.
as §1, with “In table 7, below, a” for “A”, “provided” for “provided in Table 6, below,”, “all” for “all of the bacterial”, “media without ozone treatment or growth (Bac) developed” for “media. Zooflagellates (Zoo) grew”, “test” for “algal growth”, “without ozone treatment or with a flow rate over 30 gpm.” for “from inlet and strainer samples but none from the outlet samples.”
as §1, with “In table 8, below, a” for “A”, “provided” for “provided in Table 6, below,”, “(PSI),” for “(PS),”, “Bacterial growth (Bac) developed in all of the bacterial test media. Zooflagellates (Zoo) grew in all algal growth media from inlet and strainer samples but none from the outlet samples.” left out

[5] = tested on: phytoplankton; experiment: flowing system (Phase II): culture tests for the presence of phytoplankton; format: cell-based; parameters: key: Bacterial growth (Bac); Phytoplankton (PHY); settings: outlet, 125 gpm, UTS Full, ozone Full (1.0 mg/L), 8 psu; samples 3A, 4A
[6] = tested on: invertebrates; settings: typical applications; cited from earlier work
[7] = tested on: Cryptosporidium oocysts; settings: exposure for 1 minute; cited from earlier work
[8] = 20° C.; cited from earlier work
[9] = ozone power 660 watts, 0.8 m^3hr^−1, treatment 1 to 5 minutes
[10] = outlet, 125 gpm, UTS Full, ozone Full (1.0 mg/L), 8 psu, samples 3A, 4A
[11] = sample 17A: outlet, 10 gpm, UTS Full, ozone 60.0%, 7 psu
[12] = sample 20A: outlet, 30 gpm, UTS Full, ozone 60.0%, 7 psu
[13] = sample 23A: outlet, 50 gpm, UTS Full, ozone 60.0%, 7 psu
[14] = sample 26A: outlet, 88 gpm, UTS Full, ozone 60.0%, 7 psu
[15] = sample 35A: outlet, 50 gpm, UTS Full, ozone Full (1.0 mg/L), 9 psu, one of the triplicate cultures had bacteria
[16] = sample 36A: outlet, 50 gpm, UTS Off, ozone Full (1.0 mg/L), 9 psu
[17] = sample 38A: outlet, 100 gpm, UTS Full, ozone Full (1.0 mg/L), 9 psu, triplicate

O=[O+][O-] [Ozone, ozone]
ozone concentration time value required to lower viable B. subtilis endospores by 99.9% ([1]; buffered water (pH 7.8), no additional ozone demand): about 4 | log 3 ozone concentration time value ([1]; ozone only (diffuser), no acoustic energy, deionized water): 4.46 and 4.5 | log of colony forming units per mL ([1]; ozone setpoint 1.5 mg/L, diffuser, no acoustic energy, deionized water, at 5 minutes, about 5 at 0 minutes): about 2 | log 3 ozone concentration time value ([1]; ozone with acoustic energy, intensity increased to 215 dB, 75 Hz, deionized water): 4.0 | apparent mass transfer coefficient, increase [2]: about 40% | culture media tests of treated samples ([3]; one-minute treated sample, DYU medium, the only positive of thirty tests): positive growth of a green coccoid alga | bacteria and zooflagellates in treated samples [3, 9]: positive | ciliates, dinoflagellates, nematodes in treated samples [3, 9]: no ciliates, dinoflagellates, nematodes, etc., observed | life in treated samples [3, 9]: nearly devoid of life | bacteria in outlet samples ([4]; full ozone treatment, flow rates of 30 gpm or less, 21-day incubation): killed all bacteria | growth in M (malt broth) [4, 10]: Bac | growth in P (peptone broth) [4, 10]: Bac | growth in PM (peptonemethylamine broth) [4, 10]: Bac | growth in TM (test medium) [4, 10]: Bac | growth in M (malt broth) [4, 11]: Bac | growth in P (peptone broth) [4, 11]: Bac | growth in PM (peptonemethylamine broth) [4, 11]: Bac | growth in TM (test medium) [4, 11]: Bac | growth in M (malt broth) [4, 12]: Bac | growth in P (peptone broth) [4, 12]: Bac | growth in PM (peptonemethylamine broth) [4, 12]: Bac | growth in TM (test medium) [4, 12]: Bac | growth in M (malt broth) [4, 13]: Bac | growth in P (peptone broth) [4, 13]: Bac | growth in PM (peptonemethylamine broth) [4, 13]: Bac | growth in TM (test medium) [4, 13]: Bac | growth in M (malt broth) [4, 14]: Bac | growth in P (peptone broth) [4, 14]: Bac | growth in PM (peptonemethylamine broth) [4, 14]: Bac | growth in TM (test medium) [4, 14]: Bac | growth in M (malt broth) [4, 15]: Bac^3 | growth in PM (peptonemethylamine broth) [4, 15]: Bac^2 | growth in TM (test medium) [4, 15]: Bac^3 | growth in BP [4, 16]: Bac | growth in M (malt broth) [4, 16]: Bac | growth in TM (test medium) [4, 16]: Bac | growth in BP [4, 17]: Bac | growth in M (malt broth) [4, 17]: Bac | growth in PM (peptonemethylamine broth) [4, 17]: Bac | growth in TM (test medium) [4, 17]: Bac | growth in Blk Sea (black sea medium, brackish at 16 psu) [5]: PHY^6 | growth in DYV (DY-V medium, freshwater) [5]: PHY^3 | growth in K (K medium, oceanic) [5]: PHY^4 | growth in L1 + NH4 (coastal) [5]: PHY^5 | growth in L1/24 (coastal at 24 psu) [5]: PHY^7 | growth in Prov (coastal enriched with soil extract) [5]: PHY^8 | contact dosage needed to kill invertebrates [6]: ~0.3 mg/L | ozone concentration killing Cryptosporidium oocysts [7]: about 1.5 mg/L

OBr [Hypobromous acid]
pKa [8]: 8.8
